Measured values published in PubChem BioAssay (NCI).
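Compound exposure: 48 hours, 5 concentrations, 96-well plates. TGI denotes the concentration required for complete inhibition of growth.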

Key:
Experiment in all cases: NCI tumour cell line growth inhibition, 48 h
HCC-2998 colon = tested on: HCC-2998 colon
CCRF-CEM leukemia = tested on: CCRF-CEM leukemia
ACHN renal = tested on: ACHN renal
CAKI-1 renal = tested on: CAKI-1 renal
IGROV1 ovarian = tested on: IGROV1 ovarian
MCF7 breast = tested on: MCF7 breast
HOP-62 NSCLC = tested on: HOP-62 NSCLC
KM12 colon = tested on: KM12 colon
LOX IMVI melanoma = tested on: LOX IMVI melanoma
MOLT-4 leukemia = tested on: MOLT-4 leukemia
MDA-MB-435 = tested on: MDA-MB-435
SF-295 CNS = tested on: SF-295 CNS
K-562 leukemia = tested on: K-562 leukemia
BT-549 breast = tested on: BT-549 breast
SK-MEL-5 melanoma = tested on: SK-MEL-5 melanoma
OVCAR-4 ovarian = tested on: OVCAR-4 ovarian
A549 NSCLC = tested on: A549 NSCLC
SNB-19 CNS = tested on: SNB-19 CNS
EKVX NSCLC = tested on: EKVX NSCLC
U251 CNS = tested on: U251 CNS
NCI-H226 lung = tested on: NCI-H226 lung
OVCAR-3 ovarian = tested on: OVCAR-3 ovarian
HCT-116 colon = tested on: HCT-116 colon
MDA-N = tested on: MDA-N
OVCAR-8 ovarian = tested on: OVCAR-8 ovarian
NCI/ADR-RES ovarian = tested on: NCI/ADR-RES ovarian
OVCAR-5 ovarian = tested on: OVCAR-5 ovarian
MALME-3M melanoma = tested on: MALME-3M melanoma
786-0 renal = tested on: 786-0 renal
SW-620 colon = tested on: SW-620 colon
RPMI-8226 leukemia = tested on: RPMI-8226 leukemia
M14 melanoma = tested on: M14 melanoma
HT29 colon = tested on: HT29 colon
UACC-62 melanoma = tested on: UACC-62 melanoma
SN12C renal = tested on: SN12C renal
MDA-MB-231 breast = tested on: MDA-MB-231 breast
COLO 205 colon = tested on: COLO 205 colon
A498 renal = tested on: A498 renal
UO-31 renal = tested on: UO-31 renal
NCI-H23 lung = tested on: NCI-H23 lung
PC-3 prostate = tested on: PC-3 prostate
HCT-15 colon = tested on: HCT-15 colon
DU-145 prostate = tested on: DU-145 prostate
SK-MEL-28 melanoma = tested on: SK-MEL-28 melanoma
NCI-H522 lung = tested on: NCI-H522 lung
SF-268 CNS = tested on: SF-268 CNS
HOP-92 NSCLC = tested on: HOP-92 NSCLC
NCI-H460 lung = tested on: NCI-H460 lung
SK-OV-3 ovarian = tested on: SK-OV-3 ovarian
RXF 393 renal = tested on: RXF 393 renal
T-47D breast = tested on: T-47D breast
HS 578T breast = tested on: HS 578T breast
TK-10 renal = tested on: TK-10 renal
UACC-257 melanoma = tested on: UACC-257 melanoma
SF-539 CNS = tested on: SF-539 CNS
HL-60(TB) leukemia = tested on: HL-60(TB) leukemia
SK-MEL-2 melanoma = tested on: SK-MEL-2 melanoma

## OCCN(CCO)c1ncnc2nc[nH]c12
HCC-2998 colon
  TGI: > 100 µM
CCRF-CEM leukemia
  TGI: > 100 µM
ACHN renal
  TGI: > 100 µM
CAKI-1 renal
  TGI: > 100 µM
IGROV1 ovarian
  TGI: > 100 µM
MCF7 breast
  TGI: > 100 µM
HOP-62 NSCLC
  TGI: > 100 µM
KM12 colon
  TGI: > 100 µM
LOX IMVI melanoma
  TGI: > 100 µM
MOLT-4 leukemia
  TGI: > 100 µM
MDA-MB-435
  TGI: > 100 µM
SF-295 CNS
  TGI: > 100 µM
K-562 leukemia
  TGI: > 100 µM
BT-549 breast
  TGI: > 100 µM
SK-MEL-5 melanoma
  TGI: > 100 µM
OVCAR-4 ovarian
  TGI: > 100 µM
A549 NSCLC
  TGI: > 100 µM
SNB-19 CNS
  TGI: > 100 µM
EKVX NSCLC
  TGI: > 100 µM
U251 CNS
  TGI: > 100 µM
NCI-H226 lung
  TGI: > 100 µM
OVCAR-3 ovarian
  TGI: > 100 µM
HCT-116 colon
  TGI: > 100 µM
MDA-N
  TGI: > 100 µM
OVCAR-8 ovarian
  TGI: > 100 µM
NCI/ADR-RES ovarian
  TGI: > 100 µM
OVCAR-5 ovarian
  TGI: > 100 µM
MALME-3M melanoma
  TGI: > 100 µM
786-0 renal
  TGI: > 100 µM
SW-620 colon
  TGI: > 100 µM
RPMI-8226 leukemia
  TGI: > 100 µM
M14 melanoma
  TGI: > 100 µM
HT29 colon
  TGI: > 100 µM
UACC-62 melanoma
  TGI: > 100 µM
SN12C renal
  TGI: > 100 µM
MDA-MB-231 breast
  TGI: > 100 µM
COLO 205 colon
  TGI: > 100 µM
A498 renal
  TGI: > 100 µM
UO-31 renal
  TGI: > 100 µM
NCI-H23 lung
  TGI: > 100 µM
PC-3 prostate
  TGI: > 100 µM
HCT-15 colon
  TGI: > 100 µM
DU-145 prostate
  TGI: > 100 µM
SK-MEL-28 melanoma
  TGI: > 100 µM
NCI-H522 lung
  TGI: > 100 µM
SF-268 CNS
  TGI: > 100 µM
HOP-92 NSCLC
  TGI: > 100 µM
NCI-H460 lung
  TGI: > 100 µM
SK-OV-3 ovarian
  TGI: > 100 µM
RXF 393 renal
  TGI: > 100 µM
T-47D breast
  TGI: > 100 µM
HS 578T breast
  TGI: > 100 µM
TK-10 renal
  TGI: > 100 µM
UACC-257 melanoma
  TGI: > 100 µM

## CC1(C)CC[C@]2(C)CC[C@]3(C)C(=CC[C@@H]4[C@@]5(C)CCC(=O)C(C)(C)[C@@H]5[C@H](O)C[C@]43C)[C@@H]2C1
HCC-2998 colon
  TGI: 28.9 µM
CCRF-CEM leukemia
  TGI: > 100 µM
ACHN renal
  TGI: 30.6 µM
CAKI-1 renal
  TGI: 33.7 µM
SF-539 CNS
  TGI: 32.1 µM
IGROV1 ovarian
  TGI: 32.1 µM
MCF7 breast
  TGI: 35.1 µM
HOP-62 NSCLC
  TGI: 31.5 µM
KM12 colon
  TGI: 37.9 µM
LOX IMVI melanoma
  TGI: 32.8 µM
MOLT-4 leukemia
  TGI: > 100 µM
MDA-MB-435
  TGI: 39.7 µM
SF-295 CNS
  TGI: 32.3 µM
BT-549 breast
  TGI: 35.4 µM
SK-MEL-5 melanoma
  TGI: 31.5 µM
OVCAR-4 ovarian
  TGI: 34.7 µM
A549 NSCLC
  TGI: 54.3 µM
SNB-19 CNS
  TGI: 30.6 µM
EKVX NSCLC
  TGI: 32.4 µM
U251 CNS
  TGI: 30.5 µM
OVCAR-3 ovarian
  TGI: 31 µM
HCT-116 colon
  TGI: 30.5 µM
HL-60(TB) leukemia
  TGI: > 100 µM
MDA-N
  TGI: 29.7 µM
OVCAR-8 ovarian
  TGI: 34.3 µM
SK-MEL-2 melanoma
  TGI: 30 µM
NCI/ADR-RES ovarian
  TGI: 38.6 µM
OVCAR-5 ovarian
  TGI: 30.7 µM
MALME-3M melanoma
  TGI: 31.6 µM
786-0 renal
  TGI: 30.9 µM
SW-620 colon
  TGI: 42.2 µM
RPMI-8226 leukemia
  TGI: 53.2 µM
M14 melanoma
  TGI: 40.7 µM
HT29 colon
  TGI: 31.8 µM
UACC-62 melanoma
  TGI: 29.4 µM
SN12C renal
  TGI: 29.5 µM
MDA-MB-231 breast
  TGI: 23.7 µM
COLO 205 colon
  TGI: 32 µM
A498 renal
  TGI: 31 µM
NCI-H23 lung
  TGI: 35.3 µM
PC-3 prostate
  TGI: 30.9 µM
HCT-15 colon
  TGI: 39.3 µM
DU-145 prostate
  TGI: 34.4 µM
SK-MEL-28 melanoma
  TGI: 34.8 µM
NCI-H522 lung
  TGI: 31.9 µM
SF-268 CNS
  TGI: 32 µM
HOP-92 NSCLC
  TGI: 31.7 µM
NCI-H460 lung
  TGI: 33.9 µM
SK-OV-3 ovarian
  TGI: 31.7 µM
RXF 393 renal
  TGI: 31.1 µM
T-47D breast
  TGI: 37.7 µM
HS 578T breast
  TGI: 36.8 µM
TK-10 renal
  TGI: 30.1 µM
UACC-257 melanoma
  TGI: 32.3 µM
